Measurements from US12491180B2, “Application of compound in treating pneumonia” (SHENZHEN OPTIMUM BIOLOGICAL TECHNOLOGY CO., LTD., priority 2019, dated 2025).
≈ marks a conversion by molar mass, not a printed value.

Legend:
Format in all cases: cell-based
[1] = system: Escherichia coli ATCC25922; experiment: MIC, solid dilution method; conditions: E. coli ATCC25922, standard strain, MHA agar, 37° C., 16-20 hours, read-out: MIC
Procedure: (§1) (1) Standard strains: Escherichia coli BAA-2452, Escherichia coli ATCC25922, Klebsiella pneumoniae BAA-1705; all purchased from ATCC.
(§2) The above-mentioned glycerol-preserved strains were taken out from the −80° C. refrigerator, streaked and inoculated on MHA plates, labeled, and cultured overnight in a 37° C. incubator.
(§3) The inoculum was prepared directly from bacterial suspension, and several recovered colonies were picked and directly prepared into a bacterial suspension with a turbidity of No. 0.5 McFarland units in normal saline, and a 10-fold dilution was made during inoculation.
(§4) 6 bottles of MHA culture medium 500 mL/bottle were prepared, and the pH was adjusted to 7.2-7.4, sterilized at 121° C. for 15 min, and the medium was placed in a 55° C. water bath to keep warm.
(§5) Sterile blank petri dishes were taken, and marked with each FL drug/concentration according to 2-fold dilution, and 10 concentrations of each drug starting from 8 μg/mL were tested.
(§6) […]; 20 mL was aspirated and added to a petri dish consistent with the mark, and then 20 mL of MHA culture medium was added to the rest of the drug-containing culture medium, mixed evenly, that is, the 2-fold diluted drug-containing culture medium; 20 mL was aspirated and added to the petri dish consistent with the mark, and then diluted to the 10th concentration and the […] respectively by repeating the above-mentioned steps, and then poured into the petri dish.
(§7) 4 bacterial control petri dishes without drug were prepared at the same time as a control.
(§8) The positioning needle and the inoculation needle were installed according to the order of placement of the colony on the inoculation plate. After inoculation, a bacterial solution circle was formed on the petri dish. After the bacterial solution was absorbed by the agar, the petri dish was placed in an incubator at 37° C. for overnight incubation (16-20 hours), and then taken out.
(§9) The minimum inhibitory concentrations of the compounds against the CRE and CSE strains were determined by the solid dilution method, and the results are shown in Tables 3 and 4.

[2] = system: Escherichia coli BAA-2452; experiment: MIC, solid dilution method; conditions: BAA2452, E. coli BAA-2452, standard strain, MHA agar, 37° C., 16-20 hours, read-out: MIC
Procedure: as §1, §2, §3, §4, §5, §6, §7, §8, §9

[3] = system: Klebsiella pneumoniae BAA-1705; experiment: MIC, solid dilution method; conditions: BAA1705, K.p BAA-1705, standard strain, MHA agar, 37° C., 16-20 hours, read-out: MIC
Procedure: as §1, §2, §3, §4, §5, §6, §7, §8, §9

[4] = system: Acinetobacter baumannii 6383; experiment: MIC, solid dilution method; conditions: A.B 6383, CRE clinical isolate, MHA agar, 37° C., 16-20 hours, read-out: MIC
Procedure: (§10) CRE Acinetobacter baumannii 8476, 6383, a total of 2 strains; CRE Serratia marcescens 14541, a total of 1 strain; all collected in the Department of Infectious Diseases, West China Hospital, Chengdu, Sichuan Province, and kept in our laboratory.
as §2, §3, §4, §5, §6, §7, §8, §9

[5] = system: Acinetobacter baumannii 8476; experiment: MIC, solid dilution method; conditions: A.B 8476, CRE clinical isolate, MHA agar, 37° C., 16-20 hours, read-out: MIC
Procedure: as §10, §2, §3, §4, §5, §6, §7, §8, §9

[6] = system: Serratia marcescens 14541; experiment: MIC, solid dilution method; conditions: Sma 14541, CRE clinical isolate, MHA agar, 37° C., 16-20 hours, read-out: MIC
Procedure: as §10, §2, §3, §4, §5, §6, §7, §8, §9

[7] = system: 16 clinical CRE strains; experiment: MIC50, MIC90 and MIC range against 16 clinical CRE strains; conditions: 16 clinical CRE strains; for MIC50: read-out: MIC50; for MIC90: read-out: MIC90
Procedure: as §2, §3, §4, §5, §6, §7, §8, §9

MIC [1] [µg/mL] | MIC [2] [µg/mL] | MIC [3] [µg/mL] | MIC [4] [µg/mL] | MIC [5] [µg/mL] | MIC [6] [µg/mL] | MIC50 [7] [µg/mL] | MIC90 [7] [µg/mL] | MIC range [7] [µg/mL] | SMILES
0.03 (≈ 0.0449 µM) | 0.5 (≈ 0.748 µM) | 1 (≈ 1.5 µM) | 8 (≈ 12 µM) | 2 (≈ 2.99 µM) | > 8 | 2 (≈ 2.99 µM) | > 8 | – | CC1(C)[C@H](NC(=O)/C(=N\O[C@@H](COc2ccc(C(=N)N[C@@H]3CCCNC3)cc2)C(=O)O)c2csc(N)n2)C(=O)N1OS(=O)(=O)O [AIC499, reference compound]
< 0.015 | 0.25 (≈ 0.337 µM) | 0.125 (≈ 0.169 µM) | 2 (≈ 2.7 µM) | 2 (≈ 2.7 µM) | 4 (≈ 5.4 µM) | 0.125 (≈ 0.169 µM) | 4 (≈ 5.4 µM) | 0.06 to 4 | CC1(C)[C@H](NC(=O)/C(=N\O[C@@H](COc2ccc3c(c2)CN(C(=N)N(CCCN)CCCN)C3)C(=O)O)c2csc(N)n2)C(=O)N1OS(=O)(=O)O [Compound 32]
< 0.015 | 0.25 (≈ 0.352 µM) | 0.25 (≈ 0.352 µM) | 4 (≈ 5.64 µM) | 2 (≈ 2.82 µM) | > 8 | 1 (≈ 1.41 µM) | > 8 | – | CC1(C)[C@H](NC(=O)/C(=N\O[C@@H](COc2ccc3c(c2)CN(C(=N)N[C@@H]2CCCNC2)C3)C(=O)O)c2csc(N)n2)C(=O)N1OS(=O)(=O)O [Compound 41]
0.06 (≈ 0.0875 µM) | 0.5 (≈ 0.729 µM) | 1 (≈ 1.46 µM) | > 8 | 8 (≈ 11.7 µM) | > 8 | 2 (≈ 2.92 µM) | > 8 | – | CC1(C)[C@H](NC(=O)/C(=N\O[C@@H](COc2ccc3c(c2)CN(C(=N)NOCCN)C3)C(=O)O)c2csc(N)n2)C(=O)N1OS(=O)(=O)O [Compound 43]
< 0.015 | 0.25 (≈ 0.373 µM) | 0.25 (≈ 0.373 µM) | 2 (≈ 2.99 µM) | 1 (≈ 1.49 µM) | > 8 | 0.5 (≈ 0.747 µM) | 8 (≈ 11.9 µM) | – | CC1(C)[C@H](NC(=O)/C(=N\O[C@@H](COc2ccc3c(c2)CN(C(=N)NCCN)C3)C(=O)O)c2csc(N)n2)C(=O)N1OS(=O)(=O)O [Compound 44]
< 0.015 | 0.25 (≈ 0.315 µM) | 0.5 (≈ 0.631 µM) | 4 (≈ 5.04 µM) | 4 (≈ 5.04 µM) | > 8 | 1 (≈ 1.26 µM) | 8 (≈ 10.1 µM) | – | CC1(C)[C@H](NC(=O)/C(=N\O[C@@H](COc2ccc3c(c2)CN(/C(=N\[C@@H]2CCCNC2)N[C@@H]2CCCNC2)C3)C(=O)O)c2csc(N)n2)C(=O)N1OS(=O)(=O)O [Compound 46]
